Laboratory results from patent US11524960B2, “Heterobicyclic inhibitors of MAT2A and methods of use for treating cancer” (AGIOS PHARMACEUTICALS, INC., priority 2018, dated 2022).

Tests used:
HCT116 MTAP+/+ = assay: Inhibition of cellular proliferation (Cell Titer Glo), HCT116 MTAP+/+; format: cell-based, human; settings: Homo sapiens, HCT-116, 96 h, 4 days, IC50 score, read-out: 4 Day Relative Growth Inhibition (MTAP +/+; Example 277)
Procedure, shortened: (§1)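 Isogenic HCT116 lines, MTAP+/+ and MTAP−/−, treated 24 h after plating with 10-point 3-fold compound dilutions including DMSO only, then grown 4 days at 37 °C/5% CO2. Cell Titer Glo ATP luminescence, blank-subtracted and normalised to 0.2% DMSO control, gave percent change in proliferation versus log concentration.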

[1] = system: SAM in HCT116 human colon carcinoma cell line engineered to delete the MTAP gene (MTAP −/−); assay: Cellular assay of target engagement (SAM) by LC-MS/MS; format: cell-based; settings: Homo sapiens, HCT-116, 72 h, IC50 score, read-out: Cell 72 h SAM Inhibition (MTAP −/−; Example 276)
Procedure, shortened: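 MTAP-deleted HCT116 cells were dosed 24 h after plating with a 10-point 3-fold compound series in DMSO, then incubated 72 h at 37 °C/5% CO2. Cells were extracted in cold 80% methanol with acetic acid and d3-SAM internal standard. SAM was quantified by LC-MS/MS MRM (m/z 399.2→250.1).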

MAT2A homodimer = target: T1, MAT2A homodimer (Homo sapiens, UniProt P31153); assay: Biochemical assay: inhibition of MAT2A (phosphate release, PiColorLock Gold); settings: MAT2A IC50 score; read-out: Enzyme Inhibition (Example 275)
T1 construct: inferred from Ni sepharose purification and imidazole elution; made in house; host or cells: Sf9 insect cells, recombinant baculovirus (Bac to Bac, pFASTBAC1)
T1 sequence (P31153 whole entry): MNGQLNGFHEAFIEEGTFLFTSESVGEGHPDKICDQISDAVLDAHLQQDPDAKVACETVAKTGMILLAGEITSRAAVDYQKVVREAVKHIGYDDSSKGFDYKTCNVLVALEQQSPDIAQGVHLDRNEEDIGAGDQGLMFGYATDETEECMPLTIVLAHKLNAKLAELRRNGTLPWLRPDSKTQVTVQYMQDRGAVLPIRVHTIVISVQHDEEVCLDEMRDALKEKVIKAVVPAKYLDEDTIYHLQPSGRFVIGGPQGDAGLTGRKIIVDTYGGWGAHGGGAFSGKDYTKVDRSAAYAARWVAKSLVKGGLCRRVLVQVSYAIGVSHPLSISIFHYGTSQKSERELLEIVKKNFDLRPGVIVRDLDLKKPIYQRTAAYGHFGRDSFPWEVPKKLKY
Procedure, shortened: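 Baculovirus/Sf9-expressed, Ni-purified MAT2A at 4 µg/mL was preincubated with compound for 60 min at 25 °C in 50 mM Tris pH 8.0, 50 mM KCl, 15 mM MgCl2, 0.3 mM EDTA, 0.005% BSA. Substrate mix (500 μM ATP, 400 μM L-methionine) was added and the reaction ran 60 min at 25 °C. Phosphate released stoichiometrically with SAM was measured colorimetrically against a phosphate standard curve.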

HCT116 MTAP−/− = assay: Inhibition of cellular proliferation (Cell Titer Glo), HCT116 MTAP−/−; format: cell-based, human; settings: Homo sapiens, HCT-116, 96 h, 4 days, IC50 score, read-out: 4 Day Relative Growth Inhibition (MTAP −/−; Example 277)
Procedure, shortened: as §1

| Structure (SMILES) | IC50 (HCT116 MTAP+/+) [nM] | IC50 [1] [nM] | IC50 (MAT2A homodimer) [nM] | IC50 (HCT116 MTAP−/−) [nM] |
| --- | --- | --- | --- | --- |
| CCOc1ccc2cn(-c3ccc4nn(C)cc4c3)c(=O)c(-c3ccc(OC(F)(F)F)cc3)c2n1 [Example 217, 2-ethoxy-6-(2-methyl-2H-indazol-5-yl)-8-(4-(trifluoromethoxy)phenyl)-1,6-naphthyridin-7(6H)-one] | > 10000 | < 100 | < 100 | 100 to 10000 |
| CCOc1ccc2cn(-c3ccc4nn(C)cc4c3)c(=O)c(-c3ccc(OC(F)F)nc3)c2n1 [Example 218, 8-(6-(difluoromethoxy)pyridin-3-yl)-2-ethoxy-6-(2-methyl-2H-indazol-5-yl)-1,6-naphthyridin-7(6H)-one] | 100 to 10000 | < 100 | < 100 | < 100 |
| CCOc1ccc2cn(-c3ccc4nn(C)cc4c3)c(=O)c(-c3ccc(C)nc3)c2n1 [Example 219, 2-ethoxy-6-(2-methyl-2H-indazol-5-yl)-8-(6-methylpyridin-3-yl)-1,6-naphthyridin-7(6H)-one] | 100 to 10000 | < 100 | < 100 | < 100 |
| CCOc1ccc2cn(-c3ccc4nn(C)cc4c3)c(=O)c(-c3ccc(C(F)(F)F)nc3)c2n1 [Example 220, 2-ethoxy-6-(2-methyl-2H-indazol-5-yl)-8-(6-(trifluoromethyl)pyridin-3-yl)-1,6-naphthyridin-7(6H)-one] | 100 to 10000 | < 100 | < 100 | < 100 |
| CCOc1ccc2cn(-c3ccc4nn(C)cc4c3)c(=O)c(-c3ccc(C4CC4)nc3)c2n1 [Example 221, 8-(6-cyclopropylpyridin-3-yl)-2-ethoxy-6-(2-methyl-2H-indazol-5-yl)-1,6-naphthyridin-7(6H)-one] | > 10000 | < 100 | < 100 | 100 to 10000 |
| CCOc1ccc2cn(-c3ccc4nn(C)cc4c3)c(=O)c(-c3ccc(-c4nc[nH]n4)cc3)c2n1 [Example 222, 8-(4-(1H-1,2,4-triazol-3-yl)phenyl)-2-ethoxy-6-(2-methyl-2H-indazol-5-yl)-1,6-naphthyridin-7(6H)-one] | > 10000 | < 100 | < 100 | 100 to 10000 |
| CCOc1ccc2cn(-c3ccc4nn(C)cc4c3)c(=O)c(-c3ccc(-c4cc[nH]n4)cc3)c2n1 [Example 223, 8-(4-(1H-pyrazol-3-yl)phenyl)-2-ethoxy-6-(2-methyl-2H-indazol-5-yl)-1,6-naphthyridin-7(6H)-one] | > 10000 | 100 to 1000 | < 100 | 100 to 10000 |
| CCOc1ccc2cn(-c3ccc4nn(C)cc4c3)c(=O)c(-c3ccc(-c4c[nH]cn4)cc3)c2n1 [Example 224, 8-(4-(1H-imidazol-4-yl)phenyl)-2-ethoxy-6-(2-methyl-2H-indazol-5-yl)-1,6-naphthyridin-7(6H)-one] | > 10000 | 100 to 1000 | < 100 | > 10000 |
| CCOc1ccc2cn(-c3ccc4nn(CCS(C)(=O)=O)cc4c3)c(=O)c(-c3ccc(Cl)cc3)c2n1 [Example 225, 8-(4-chlorophenyl)-2-ethoxy-6-(2-(2-(methylsulfonyl)ethyl)-2H-indazol-5-yl)-1,6-naphthyridin-7(6H)-one] | 100 to 10000 | < 100 | 100 to 1000 | 100 to 10000 |
| CCOc1ccc2cn(-c3ccc4ncn(C)c4c3)c(=O)c(-c3ccc(C(F)(F)F)nc3)c2n1 [Example 226, 2-ethoxy-6-(1-methyl-1H-benzo[d]imidazol-6-yl)-8-(6-(trifluoromethyl)pyridin-3-yl)-1,6-naphthyridin-7(6H)-one] | 100 to 10000 | < 100 | < 100 | < 100 |
| CCOc1ccc2cn(-c3ccc4ncn(C)c4c3)c(=O)c(-c3ccc(C(F)(F)F)cc3)c2n1 [Example 227, 2-ethoxy-6-(1-methyl-1H-benzo[d]imidazol-6-yl)-8-(4-(trifluoromethyl)phenyl)-1,6-naphthyridin-7(6H)-one] | 100 to 10000 | < 100 | < 100 | < 100 |
| CCOc1ccc2cn(-c3ccc4ncn(C)c4c3)c(=O)c(-c3ccc(C4CC4)nc3)c2n1 [Example 228, 8-(6-cyclopropylpyridin-3-yl)-2-ethoxy-6-(1-methyl-1H-benzo[d]imidazol-6-yl)-1,6-naphthyridin-7(6H)-one] | 100 to 10000 | < 100 | < 100 | < 100 |
| CCOc1ccc2cn(-c3ccc4ncn(C)c4c3)c(=O)c(-c3ccc(OC(F)F)nc3)c2n1 [Example 229, 8-(6-(difluoromethoxy)pyridin-3-yl)-2-ethoxy-6-(1-methyl-1H-benzo[d]imidazol-6-yl)-1,6-naphthyridin-7(6H)-one] | 100 to 10000 | < 100 | < 100 | < 100 |
| CCOc1ccc2cn(-c3ccc4ncccc4c3)c(=O)c(-c3ccc(OC(F)F)cc3)c2n1 [Example 230, 8-(4-(difluoromethoxy)phenyl)-2-ethoxy-6-(quinolin-6-yl)-1,6-naphthyridin-7(6H)-one] | 100 to 10000 | < 100 | < 100 | < 100 |
| CCOc1ccc2cn(-c3ccc4ncccc4c3)c(=O)c(-c3ccc(C4CC4)nc3)c2n1 [Example 231, 8-(6-cyclopropylpyridin-3-yl)-2-ethoxy-6-(quinolin-6-yl)-1,6-naphthyridin-7(6H)-one] | > 10000 | < 100 | < 100 | 100 to 10000 |
| CCOc1ccc2cn(-c3ccc4ncccc4c3)c(=O)c(-c3ccc(OC(F)F)nc3)c2n1 [Example 232, 8-(6-(difluoromethoxy)pyridin-3-yl)-2-ethoxy-6-(quinolin-6-yl)-1,6-naphthyridin-7(6H)-one] | > 10000 | < 100 | < 100 | < 100 |
| Cn1cc2cc(-n3cc4ccc(OCC5CC5)nc4c(-c4ccc(Cl)cc4)c3=O)ccc2n1 [Example 233, 8-(4-chlorophenyl)-2-(cyclopropylmethoxy)-6-(2-methyl-2H-indazol-5-yl)-1,6-naphthyridin-7(6H)-one] | > 10000 | < 100 | < 100 | < 100 |
| Cn1cnc2ccc(-n3cc4ccc(NCC(F)(F)F)nc4c(-c4ccc(Cl)cc4)c3=O)cc21 [Example 234, 8-(4-chlorophenyl)-6-(1-methyl-1H-benzo[d]imidazol-6-yl)-2-(2,2,2-trifluoroethylamino)-1,6-naphthyridin-7(6H)-one] | > 10000 | < 100 | < 100 | < 100 |
| Cn1nnc2ccc(-n3cc4ccc(NCC(F)(F)F)nc4c(-c4ccc(Cl)cc4)c3=O)cc21 [Example 235, 8-(4-chlorophenyl)-6-(1-methyl-1H-benzo[d][1,2,3]triazol-6-yl)-2-(2,2,2-trifluoroethylamino)-1,6-naphthyridin-7(6H)-one] | > 10000 | < 100 | < 100 | < 100 |
| Cn1cc2cc(-n3cc4ccc(NCC(F)(F)F)nc4c(-c4ccc(Cl)cc4)c3=O)ccc2n1 [Example 236, 8-(4-chlorophenyl)-6-(2-methyl-2H-indazol-5-yl)-2-(2,2,2-trifluoroethylamino)-1,6-naphthyridin-7(6H)-one] | > 10000 | < 100 | < 100 | < 100 |
| Cc1c2cc(-n3cc4ccc(NCC(F)(F)F)nc4c(-c4ccc(Cl)cc4)c3=O)ccc2nn1C [Example 237, 8-(4-chlorophenyl)-6-(2,3-dimethyl-2H-indazol-5-yl)-2-(2,2,2-trifluoroethylamino)-1,6-naphthyridin-7(6H)-one] | > 10000 | < 100 | < 100 | < 100 |
| Cn1cc2cc(-n3cc4ccc(NCC(F)(F)F)nc4c(-c4ccc(OC(F)F)cc4)c3=O)ccc2n1 [Example 239, 8-(4-(difluoromethoxy)phenyl)-6-(2-methyl-2H-indazol-5-yl)-2-(2,2,2-trifluoroethylamino)-1,6-naphthyridin-7(6H)-one] | 100 to 10000 | < 100 | < 100 | < 100 |
| Cn1cnc2ccc(-n3cc4ccc(NCC(F)(F)F)nc4c(-c4ccc(OC(F)F)cc4)c3=O)cc21 [Example 240, 8-(4-(difluoromethoxy)phenyl)-6-(1-methyl-1H-benzo[d]imidazol-6-yl)-2-(2,2,2-trifluoroethylamino)-1,6-naphthyridin-7(6H)-one] | > 10000 | < 100 | < 100 | < 100 |
| COc1ccc(-n2cc3ccc(NCC(F)(F)F)nc3c(-c3ccc(OC(F)F)cc3)c2=O)cc1 [Example 241, 8-(4-(difluoromethoxy)phenyl)-6-(4-methoxyphenyl)-2-(2,2,2-trifluoroethylamino)-1,6-naphthyridin-7(6H)-one] | 100 to 10000 | < 100 | < 100 | < 100 |
